Experiment [1] relates to 0.1 MCD diet mouse model of NASH. As to the kind of experiment: 0.1% methionine- and choline-deficient (0.1 MCD) diet mouse model of NASH. The class given is in vivo, C57B1/6 mice. Particulars: 5 mg/Kg/day orally by gavage, 0.1 MCD-fed mice. The source says: The study described below investigates the mechanism of action of Aramchol and its potential effect on fibrosis using the 0.1% methionine- and choline-deficient (0.1 MCD) diet mouse model of NASH.
C57B1/6 were fed the Methionine and Choline Deficient (MCD) and control diet and were sacrificed after 4 weeks. The MCD diet induces aminotransferase elevation and changes in hepatic histological features, characterized by steatosis, local inflammation, hepatocyte necrosis and fibrosis. These changes occur rapidly and are morphologically similar to those observed in human NASH. In this study the MCD diet contained 0.1% methionine to minimize and stabilize weight loss. At the end of the second week, after verification of established NASH, 0.1 MCD-fed mice were treated orally by gavage with Aramchol (5 mg/Kg/day) or vehicle (n=10, each condition). Control diet-fed mice were also treated with vehicle for same duration (n=10). At the end of the experiment, blood and liver samples were obtained. A diagram of the experimental design is shown below: […]

The test system of experiment [2] is PPAR-γ. The experiment can be described thus: PPAR-γ expression in LX-2 human hepatic stellate cells. The class given is cell-based. The settings on record: LX-2 cells, Aramchol 10 mM, 24 hours, RNA. Here is the method:
(§1) LX2 cells (150.000 cells per well) were plated in DMEM media containing antibiotics, glutamine and bovine fetal serum. After 24 hours incubation, media was changed to 0% serum and incubated for an additional period of 16 hours. Then, Aramchol (10 mM) was added and 24 hours later RNA was extracted with Trizol.

The subject of experiment [3] is Thioacetamide (TAA)-Induced Fibrosis. As to the kind of experiment: Thioacetamide (TAA)-induced fibrosis, model for hepatic cirrhosis. The settings on record: 5 mg/kg co-administered with TAA, 10 weeks, Wistar rats. The class given is in vivo. Here is the method: Liver fibrosis was induces in Wistar rats by intraperitoneal injections of TAA […] body weight) twice per week during 10 weeks. I.p. application of TAA results in hepatic centrolobular necrosis, elevated transaminase activity and robust liver fibrosis. Treatment groups further included co-administration of Aramchol (1 or 5 mg/kg orally) or obaticholic acid (OCA, 5 mg/kg). A control group of saline-treated rats (in the absence of TAA administration) was further included. Rats were then sacrificed, and livers were observed macroscopically for signs of cirrhosis and necrotic lesions, and microscopically, following Masson Goldner staining. The fibrosis score, calculated at a scale of 0-4, was determined for each sample, wherein 0 indicates no fibrosis and 4 indicates advanced fibrosis and cirrhosis.

Experiment [4] deals with COL1A1. The experiment can be described thus: COL1A1 expression in LX-2 human hepatic stellate cells. The class given is cell-based. Particulars: LX-2 cells, Aramchol 10 mM, 24 hours, RNA. The protocol:
as §1

Experiment [5] relates to LX-2 human hepatic stellate cells. As to the kind of experiment: Collagen production from LX-2 human hepatic stellate cells. The class given is cell-based. The settings on record: LX-2 cells, relative to a DMSO control.

“Also recorded” adds a separate entry of the source.

Consider `CCCCCCCCCCCCCCCCCCCC(=O)N[C@H]1CCC2(C)C(CC(O)C3C2C[C@H](O)C2(C)C(C(C)CCC(=O)O)CCC32)C1` (stereo in doubt) [Aramchol, 3β-arachidylamido-7α, 12α-dihydroxy-5β-cholan-24-oic acid], for which, in experiment [1], the “FA(16:1)/FA(16:0) ratio” value is reported as “marked decrease”, the SCD1 activity result is given as “reduced”, the SCD1 expression entry is “marked decrease” and the “content of total oxFA including oxLA” value is given as “marked reduction”. In experiment [1], the “hepatic content of diglycerides (DG) and TG” value was “reduction”; the oxidative stress entry is listed as “improved”; the “total content of monounsaturated FA (MUFA)” value is “marked decrease”. In addition, in experiment [1] (from end of week 2 to week 4), the “fibrosis in the liver (sirius red)” value is “significantly down regulates/normalizes; also recorded: reduction”; the “infiltration and activation status of macrophages in the liver (F4/80 and CD64)” value is “significantly down regulates/normalizes; also recorded: reduction”; the “steatosis in the liver (Sudan III)” value is reported as “significantly down regulates; also recorded: reduction”. For the same compound, in experiment [1] (liver), the GSH/GSSG ratio result is reported as “elevates; also recorded: normalization” and the glutathione result is listed as “significantly up regulates”. For the same compound, the “collagen in the liver” value in experiment [1] (liver extract) is on record as “significantly down regulates”. In experiment [2], the PPARγ expression entry is on record as “up-regulation”. In experiment [3], the TAA induced fibrosis result is “significantly prevented; also recorded: significantly inhibited”; the “collagen distribution in the tissue (FIG. 2)” value is listed as “reduced significantly”; the “development of necrosis and cirrhosis (macroscopic, FIG. 1)” value is recorded as “reduced significantly; also recorded: significantly inhibited”; the “fibrotic score (Masson Goldner staining, scale 0-4, FIG. 2)” value is “reduced significantly”. Also, the COL1A1 expression entry in experiment [4] is “significantly reduced”. Also, the collagen production result in experiment [5] is recorded as “significantly down regulates”.

Source of the values: US20190275061A1, “INHIBITION OF FIBROSIS IN NON ALCOHOL FATTY LIVER DISEASE PATIENTS” (GALMED RESEARCH AND DEVELOPMENT LTD, priority 2016, published 2019).
